target: PI3Kβ (Homo sapiens (Human), UniProt P42338); assay: PI3K isoform TR-FRET enzymatic assay (PI3Kβ); type: biochemical; settings: 2× Km ATP, 30 minutes at 25° C.
Summary of the method: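 Heterodimeric recombinant PI3Kβ was incubated with compound 30 minutes at 25° C. Product was detected by TR-FRET competition with 10 nM labeled PIP3 for 35 nM Eu-GRP-1 PH domain after EDTA stop. Data were normalized to 1 μM wortmannin and DMSO, and IC50 was taken from a four-parameter fit.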

Chain of PI3Kβ (P42338 whole entry, the tested form may be a part, canonical isoform): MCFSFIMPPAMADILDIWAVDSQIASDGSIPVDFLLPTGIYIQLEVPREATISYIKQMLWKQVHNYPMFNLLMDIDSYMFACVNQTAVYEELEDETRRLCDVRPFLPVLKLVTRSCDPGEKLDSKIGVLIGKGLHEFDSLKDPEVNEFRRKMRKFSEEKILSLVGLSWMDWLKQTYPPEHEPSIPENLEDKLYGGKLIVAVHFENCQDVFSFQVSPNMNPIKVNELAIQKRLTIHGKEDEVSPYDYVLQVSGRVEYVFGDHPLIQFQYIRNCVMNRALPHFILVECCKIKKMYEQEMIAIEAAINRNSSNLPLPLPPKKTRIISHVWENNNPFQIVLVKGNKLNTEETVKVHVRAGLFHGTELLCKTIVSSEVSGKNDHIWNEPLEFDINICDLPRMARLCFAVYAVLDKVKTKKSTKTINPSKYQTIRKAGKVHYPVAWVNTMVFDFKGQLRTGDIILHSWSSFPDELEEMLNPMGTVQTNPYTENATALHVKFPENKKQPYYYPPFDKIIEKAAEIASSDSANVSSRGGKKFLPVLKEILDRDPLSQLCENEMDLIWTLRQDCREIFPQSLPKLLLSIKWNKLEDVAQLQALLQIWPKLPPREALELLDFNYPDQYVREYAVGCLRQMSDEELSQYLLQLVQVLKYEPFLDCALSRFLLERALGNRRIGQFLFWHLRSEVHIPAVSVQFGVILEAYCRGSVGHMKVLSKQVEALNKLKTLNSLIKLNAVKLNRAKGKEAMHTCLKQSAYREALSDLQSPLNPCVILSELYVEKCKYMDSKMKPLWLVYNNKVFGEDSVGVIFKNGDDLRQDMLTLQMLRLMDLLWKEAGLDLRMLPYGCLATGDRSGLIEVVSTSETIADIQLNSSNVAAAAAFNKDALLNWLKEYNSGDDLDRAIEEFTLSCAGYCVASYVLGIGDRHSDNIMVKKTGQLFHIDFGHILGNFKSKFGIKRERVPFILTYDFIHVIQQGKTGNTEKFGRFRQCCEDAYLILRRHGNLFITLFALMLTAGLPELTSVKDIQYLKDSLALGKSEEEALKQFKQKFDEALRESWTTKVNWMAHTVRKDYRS
Chain of PI3Kβ (P27986 whole entry partner, the tested form may be a part, canonical isoform): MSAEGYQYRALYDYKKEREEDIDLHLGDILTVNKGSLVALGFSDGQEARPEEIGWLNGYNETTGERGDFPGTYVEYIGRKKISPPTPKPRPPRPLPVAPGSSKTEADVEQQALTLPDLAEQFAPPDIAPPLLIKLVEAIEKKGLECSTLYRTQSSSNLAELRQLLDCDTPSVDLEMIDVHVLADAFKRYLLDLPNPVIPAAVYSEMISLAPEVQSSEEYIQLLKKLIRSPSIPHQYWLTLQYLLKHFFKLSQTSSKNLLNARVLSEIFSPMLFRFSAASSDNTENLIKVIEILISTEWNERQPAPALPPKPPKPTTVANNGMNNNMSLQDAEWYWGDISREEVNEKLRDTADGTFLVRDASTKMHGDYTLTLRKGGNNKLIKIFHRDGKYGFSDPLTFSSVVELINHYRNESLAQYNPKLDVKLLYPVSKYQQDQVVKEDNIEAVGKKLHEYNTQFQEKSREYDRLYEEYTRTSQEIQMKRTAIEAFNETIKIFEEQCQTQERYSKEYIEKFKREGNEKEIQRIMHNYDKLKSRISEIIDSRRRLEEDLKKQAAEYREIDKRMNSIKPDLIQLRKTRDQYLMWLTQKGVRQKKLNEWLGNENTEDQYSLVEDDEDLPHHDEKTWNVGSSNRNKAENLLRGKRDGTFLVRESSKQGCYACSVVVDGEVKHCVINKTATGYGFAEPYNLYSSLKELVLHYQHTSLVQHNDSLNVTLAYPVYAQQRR

Row | Compound | IC50 [nM]
1 | Cc1nc2c(-c3nnc[nH]3)cc(N3CCOCC3)cc2n1-c1ccnc2c(Cl)cccc12 (atropisomer, axis not shown) [Compound 360, 4-[3-(8-chloroquinolin-4-yl)-2-methyl-7-(4H-1,2,4-triazol-3-yl)benzimidazol-5-yl]morpholine] | 2800
2 | CCc1c(C)nc2ccccc2c1-n1c(C)nc2c(-c3nnc[nH]3)cc(N3CCOCC3)cc21 [Example 62, 4-[3-(3-ethyl-2-methylquinolin-4-yl)-2-methyl-7-(4H-1,2,4-triazol-3-yl)benzimidazol-5-yl]morpholine] | 23
3 | Cc1nnc(-c2cc(N3CCOCC3)cc3c2nc(C)n3-c2ccnc3c(F)ccc(F)c23)[nH]1 (atropisomer, axis not shown) [Compound 350, (S)-4-(1-(5,8-difluoroquinolin-4-yl)-2-methyl-4-(5-methyl-4H-1,2,4-triazol-3-yl)-1H-benzo[d]imidazol-6-yl)morpholine] | 10
4 | Cc1nnc(-c2cc(N3CCOCC3)cc3c2nc(C)n3-c2c(Cl)cnc3c(Cl)cccc23)[nH]1 (atropisomer, axis not shown) [Compound 366, 4-(1-(3,8-dichloroquinolin-4-yl)-2-methyl-4-(5-methyl-4H-1,2,4-triazol-3-yl)-1H-benzo[d]imidazol-6-yl)morpholine] | 17
5 | CCc1nc2ccccc2c(-n2cnc3c(-c4nnc[nH]4)cc(N4CCOCC4)cc32)c1C [Example 72, 4-[3-(2-ethyl-3-methylquinolin-4-yl)-7-(4H-1,2,4-triazol-3-yl)benzimidazol-5-yl]morpholine] | 25
6 | Fc1ccc2c(-n3c(CC4CC4)nc4c(-c5nnc[nH]5)cc(N5CCOCC5)cc43)ccnc2c1Cl [Example 31, 4-(1-(8-chloro-7-fluoroquinolin-4-yl)-2-(cyclopropylmethyl)-4-(4H-1,2,4-triazol-3-yl)-1H-benzo[d]imidazol-6-yl)morpholine] | 9
7 | FC1(c2nc3c(-c4nnc[nH]4)cc(N4CCOCC4)cc3n2-c2ccnc3c(Cl)cccc23)CC1 [Example 54, 4-(1-(8-chloroquinolin-4-yl)-2-(1-fluorocyclopropyl)-4-(4H-1,2,4-triazol-3-yl)-1H-benzo[d]imidazol-6-yl)morpholine] | 14
8 | Clc1cccc2c(-n3c(-c4cnco4)nc4c(-c5nnc[nH]5)cc(N5CCOCC5)cc43)ccnc12 [Example 112, 4-[3-(8-chloroquinolin-4-yl)-2-(1,3-oxazol-5-yl)-7-(4H-1,2,4-triazol-3-yl)benzimidazol-5-yl]morpholine] | 17
9 | Cc1nc2c(-c3nnc[nH]3)cc(N3CCOCC3)cc2n1-c1ccnc2cccc(Cl)c12 [Example 84, 4-[3-(5-chloroquinolin-4-yl)-2-methyl-7-(4H-1,2,4-triazol-3-yl)benzimidazol-5-yl]morpholine] | 17
10 | Clc1cccc2c(-n3cnc4c(-c5nnc[nH]5)cc(N5CCOCC5)cc43)ccnc12 [Example 111, 4-[3-(8-chloroquinolin-4-yl)-7-(4H-1,2,4-triazol-3-yl)benzimidazol-5-yl]morpholine] | 3
11 | Cc1nc2c(-c3nnc[nH]3)cc(N3CCOCC3)cc2n1-c1ccnc2c(C#N)cccc12 [Example 89, 4-[2-methyl-6-morpholin-4-yl-4-(4H-1,2,4-triazol-3-yl)benzimidazol-1-yl]quinoline-8-carbonitrile] | 12
12 | Cc1cnc2c(C#N)cccc2c1-n1c(C)nc2c(-c3nnc[nH]3)cc(N3CCOCC3)cc21 (atropisomer, axis not shown) [Compound 375, 3-methyl-4-(2-methyl-6-morpholino-4-(4H-1,2,4-triazol-3-yl)-1H-benzo[d]imidazol-1-yl)quinoline-8-carbonitrile] | 7100
13 | Cc1nc2c(-c3nnc(Cl)[nH]3)cc(N3CCOCC3)cc2n1-c1ccnc2c(Cl)cccc12 (atropisomer, axis not shown) [Compound 358, 4-[3-(8-chloroquinolin-4-yl)-7-(5-chloro-4H-1,2,4-triazol-3-yl)-2-methylbenzimidazol-5-yl]morpholine] | 10
14 | COCCc1nc2c(-c3nnc[nH]3)cc(N3CCOCC3)cc2n1-c1ccnc2c(Cl)cccc12 [Example 116, 4-[3-(8-chloroquinolin-4-yl)-2-(2-methoxyethyl)-7-(4H-1,2,4-triazol-3-yl)benzimidazol-5-yl]morpholine] | 21
15 | Cc1nc2c(Cl)cccc2c(-n2c(C)nc3c(-c4nnc[nH]4)cc(N4CCOCC4)cc32)c1C [Example 70, 4-[3-(8-chloro-2,3-dimethylquinolin-4-yl)-2-methyl-7-(4H-1,2,4-triazol-3-yl)benzimidazol-5-yl]morpholine] | 36

Second part, the molecule after the results:

Row | IC50 [nM] | Compound
16 | 8600 | Cc1nc2c(-c3ccncc3)cc(N3CCOCC3)cc2n1-c1ccnc2c(Cl)cccc12 [Example 319, 4-[3-(8-chloroquinolin-4-yl)-2-methyl-7-pyridin-4-ylbenzimidazol-5-yl]morpholine]
17 | 16 | CCc1nc2c(-c3nnc[nH]3)cc(N3CCOCC3)cc2n1-c1ccnc2c(F)ccc(F)c12 [Example 125, 4-[3-(5,8-difluoroquinolin-4-yl)-2-ethyl-7-(4H-1,2,4-triazol-3-yl)benzimidazol-5-yl]morpholine]
18 | 84 | Fc1ccc2c(-n3c(C4CC4)nc4c(-c5nnc[nH]5)cc(N5CCOCC5)cc43)ccnc2c1F [Example 143, 4-[2-cyclopropyl-3-(7,8-difluoroquinolin-4-yl)-7-(4H-1,2,4-triazol-3-yl)benzimidazol-5-yl]morpholine]
19 | 120 | Clc1cccc2c(-n3c(C4CCCO4)nc4c(-c5ccccc5)cc(N5CCOCC5)cc43)ccnc12 (stereo not shown) [Example 198]
20 | 12 | CCCc1nc2c(-c3nccs3)cc(N3CCOCC3)cc2n1-c1ccnc2c(F)ccc(F)c12 [Example 239, 4-[3-(5,8-difluoroquinolin-4-yl)-2-propyl-7-(1,3-thiazol-2-yl)benzimidazol-5-yl]morpholine]
21 | 2500 | Cc1nc2c(-c3cccc(N(C)C)c3)cc(N3CCOCC3)cc2n1-c1ccnc2c(Cl)cccc12 [Example 316, 3-(1-(8-chloroquinolin-4-yl)-2-methyl-6-morpholino-1H-benzo[d]imidazol-4-yl)-N,N-dimethylaniline]
22 | 100 | Cc1csc(-c2cc(N3CCOCC3)cc3c2nc(C2CC2)n3-c2ccnc3c(Cl)cccc23)n1 [Example 234, 4-[3-(8-chloroquinolin-4-yl)-2-cyclopropyl-7-(4-methyl-1,3-thiazol-2-yl)benzimidazol-5-yl]morpholine]
23 | 8 | Cc1csc(-c2cc(N3CCOCC3)cc3c2nc(C)n3-c2ccnc3c(F)ccc(F)c23)n1 [Example 233, 4-[3-(5,8-difluoroquinolin-4-yl)-2-methyl-7-(4-methyl-1,3-thiazol-2-yl)benzimidazol-5-yl]morpholine]
24 | 27 | Clc1cccc2c(-n3c(C4CC4)nc4c(-c5cnn[nH]5)cc(N5CCOCC5)cc43)ccnc12 [Example 378, 4-(1-(8-chloroquinolin-4-yl)-2-cyclopropyl-4-(1H-1,2,3-triazol-5-yl)-1H-benzo[d]imidazol-6-yl)morpholine]
25 | 44 | Cn1cc(-c2nc3c(-c4nnc[nH]4)cc(N4CCOCC4)cc3n2-c2ccnc3c(Cl)cccc23)cn1 [Example 121, 4-[3-(8-chloroquinolin-4-yl)-2-(1-methylpyrazol-4-yl)-7-(4H-1,2,4-triazol-3-yl)benzimidazol-5-yl]morpholine]
26 | 14 | Fc1ccc(F)c2c(-n3c(C4CC4)nc4c(-c5cnc(Cl)[nH]5)cc(N5CCOCC5)cc43)ccnc12 [Example 286, 4-[7-(2-chloro-1H-imidazol-5-yl)-2-cyclopropyl-3-(5,8-difluoroquinolin-4-yl)benzimidazol-5-yl]morpholine]
27 | 71 | CCc1nc2c(-c3cnc(Cl)[nH]3)cc(N3CCOCC3)cc2n1-c1cc(C)nc2c(F)cccc12 [Example 283, 4-[7-(2-chloro-1H-imidazol-5-yl)-2-ethyl-3-(8-fluoro-2-methylquinolin-4-yl)benzimidazol-5-yl]morpholine]
28 | 470 | Cc1cc(-n2c(C)nc3c(-c4nnn[nH]4)cc(N4CCOCC4)cc32)c2ccccc2n1 [Example 160, 4-(2-methyl-1-(2-methylquinolin-4-yl)-4-(1H-tetrazol-5-yl)-1H-benzo[d]imidazol-6-yl)morpholine]
29 | 12 | Cc1nc2c(-c3nnc(Cl)[nH]3)cc(N3CCOCC3)cc2n1-c1ccnc2c(Cl)cccc12 [Example 178, 4-[3-(8-chloroquinolin-4-yl)-7-(5-chloro-4H-1,2,4-triazol-3-yl)-2-methylbenzimidazol-5-yl]morpholine]
30 | 317 | Cc1cc(-c2cc(N3CCOCC3)cc3c2nc(C)n3-c2ccnc3c(Cl)cccc23)n[nH]1 [Example 268, 4-[3-(8-chloroquinolin-4-yl)-2-methyl-7-(5-methyl-1H-pyrazol-3-yl)benzimidazol-5-yl]morpholine]
31 | 5 | Fc1ccc(F)c2c(-n3cnc4c(-c5ncco5)cc(N5CCOCC5)cc43)ccnc12 [Example 236, 4-[3-(5,8-difluoroquinolin-4-yl)-7-(1,3-oxazol-2-yl)benzimidazol-5-yl]morpholine]
32 | 52 | Clc1cccc2c(-n3c(-c4cnsc4)nc4c(-c5nnc[nH]5)cc(N5CCOCC5)cc43)ccnc12 [Example 118, 4-[3-(8-chloroquinolin-4-yl)-2-(1,2-thiazol-4-yl)-7-(4H-1,2,4-triazol-3-yl)benzimidazol-5-yl]morpholine]
33 | 47 | Cc1nnc(-c2cc(N3CCOCC3)cc3c2nc(C)n3-c2c(Cl)cnc3c(Cl)cccc23)[nH]1 [Example 157, 4-(1-(3,8-dichloroquinolin-4-yl)-2-methyl-4-(5-methyl-4H-1,2,4-triazol-3-yl)-1H-benzo[d]imidazol-6-yl)morpholine]
34 | 88 | Cc1nc2c(-c3ccoc3)cc(N3CCOCC3)cc2n1-c1ccnc2c(Cl)cccc12 [Example 275, 4-[3-(8-chloroquinolin-4-yl)-7-(furan-3-yl)-2-methylbenzimidazol-5-yl]morpholine]
